The term Kd denotes a measure of binding affinity in units of concentration.

Among the data in US20240109865A1, “INDAZOLE COMPOUNDS AS KINASE INHIBITORS” (TYRA BIOSCIENCES, INC., priority 2020, published 2024) are Kd values, retold here.

Experiment in all cases: Kinase assay, binding constants (Kd), kinase-tagged T7 phage, qPCR
(In general: Quantitative PCR measures a nucleic acid by following its amplification.)

The target in experiment [1] is FGFR3 (V555M) (Homo sapiens (Human), UniProt P22607, V555M). To be noted: V555M mutant. The essentials: (§1)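 Kinase-tagged T7 phage (grown in BL21-derived E. coli) competed with test compound for immobilized biotinylated ligand on streptavidin beads. Kds came from an 11-point 3-fold dilution series at 0.9% final DMSO. Bound kinase was eluted with non-biotinylated ligand and quantified by qPCR, with Hill slope fixed at −1.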
Sequence of FGFR3 (V555M) (P22607 23-806 V555M): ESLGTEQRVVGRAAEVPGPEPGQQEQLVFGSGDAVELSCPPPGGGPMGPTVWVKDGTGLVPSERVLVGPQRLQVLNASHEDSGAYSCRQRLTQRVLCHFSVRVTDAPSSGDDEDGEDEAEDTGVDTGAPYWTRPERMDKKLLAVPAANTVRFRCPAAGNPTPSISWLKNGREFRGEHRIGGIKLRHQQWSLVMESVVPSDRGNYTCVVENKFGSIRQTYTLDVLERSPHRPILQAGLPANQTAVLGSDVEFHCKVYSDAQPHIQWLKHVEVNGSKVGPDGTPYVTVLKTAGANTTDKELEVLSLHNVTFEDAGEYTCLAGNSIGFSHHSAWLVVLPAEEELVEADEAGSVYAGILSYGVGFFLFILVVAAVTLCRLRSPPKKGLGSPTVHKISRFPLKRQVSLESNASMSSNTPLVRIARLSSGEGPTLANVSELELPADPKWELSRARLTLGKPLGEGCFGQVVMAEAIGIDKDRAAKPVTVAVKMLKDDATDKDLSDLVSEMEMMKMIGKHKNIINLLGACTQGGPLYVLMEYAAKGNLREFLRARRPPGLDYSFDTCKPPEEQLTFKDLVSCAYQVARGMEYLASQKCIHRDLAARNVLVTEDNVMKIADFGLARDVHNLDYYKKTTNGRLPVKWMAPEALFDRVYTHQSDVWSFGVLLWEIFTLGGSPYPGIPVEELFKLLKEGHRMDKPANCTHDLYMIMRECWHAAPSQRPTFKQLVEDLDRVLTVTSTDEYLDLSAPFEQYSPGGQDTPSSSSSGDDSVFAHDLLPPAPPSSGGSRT

The target in experiment [2] is FGFR2 (Homo sapiens (Human), UniProt P21802). The procedure, abridged: as §1
Sequence of FGFR2 (P21802 22-821): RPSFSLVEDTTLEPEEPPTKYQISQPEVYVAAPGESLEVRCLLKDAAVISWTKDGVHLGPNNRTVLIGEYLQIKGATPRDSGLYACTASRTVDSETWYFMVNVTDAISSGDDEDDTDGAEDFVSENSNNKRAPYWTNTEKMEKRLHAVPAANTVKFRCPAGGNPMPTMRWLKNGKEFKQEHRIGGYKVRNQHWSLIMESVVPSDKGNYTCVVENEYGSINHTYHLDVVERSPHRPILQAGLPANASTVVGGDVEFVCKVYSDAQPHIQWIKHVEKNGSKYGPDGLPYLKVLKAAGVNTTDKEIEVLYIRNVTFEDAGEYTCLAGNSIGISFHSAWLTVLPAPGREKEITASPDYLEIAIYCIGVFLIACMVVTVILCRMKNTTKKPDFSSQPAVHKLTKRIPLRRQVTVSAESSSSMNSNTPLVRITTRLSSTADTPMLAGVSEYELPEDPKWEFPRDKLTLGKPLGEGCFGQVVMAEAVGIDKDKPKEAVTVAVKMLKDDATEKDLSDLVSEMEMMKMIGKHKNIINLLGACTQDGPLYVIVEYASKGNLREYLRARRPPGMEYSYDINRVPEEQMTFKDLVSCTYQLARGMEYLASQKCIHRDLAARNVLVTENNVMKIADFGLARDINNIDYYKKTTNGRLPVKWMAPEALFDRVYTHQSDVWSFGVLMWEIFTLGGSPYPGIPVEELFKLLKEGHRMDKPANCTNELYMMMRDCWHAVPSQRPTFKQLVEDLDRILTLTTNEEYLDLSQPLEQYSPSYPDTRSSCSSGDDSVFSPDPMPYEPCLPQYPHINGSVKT
The target of experiment [3] is FGFR4 (Homo sapiens (Human), UniProt P22455). The procedure, abridged:
as §1

Experiment [4] concerns the target FGFR3 (Homo sapiens (Human), UniProt P22607). The procedure, abridged:
as §1

Experiment [5] deals with FGFR1 (Homo sapiens (Human), UniProt P11362). The essentials: as §1
Sequence of FGFR1 (P11362 22-822): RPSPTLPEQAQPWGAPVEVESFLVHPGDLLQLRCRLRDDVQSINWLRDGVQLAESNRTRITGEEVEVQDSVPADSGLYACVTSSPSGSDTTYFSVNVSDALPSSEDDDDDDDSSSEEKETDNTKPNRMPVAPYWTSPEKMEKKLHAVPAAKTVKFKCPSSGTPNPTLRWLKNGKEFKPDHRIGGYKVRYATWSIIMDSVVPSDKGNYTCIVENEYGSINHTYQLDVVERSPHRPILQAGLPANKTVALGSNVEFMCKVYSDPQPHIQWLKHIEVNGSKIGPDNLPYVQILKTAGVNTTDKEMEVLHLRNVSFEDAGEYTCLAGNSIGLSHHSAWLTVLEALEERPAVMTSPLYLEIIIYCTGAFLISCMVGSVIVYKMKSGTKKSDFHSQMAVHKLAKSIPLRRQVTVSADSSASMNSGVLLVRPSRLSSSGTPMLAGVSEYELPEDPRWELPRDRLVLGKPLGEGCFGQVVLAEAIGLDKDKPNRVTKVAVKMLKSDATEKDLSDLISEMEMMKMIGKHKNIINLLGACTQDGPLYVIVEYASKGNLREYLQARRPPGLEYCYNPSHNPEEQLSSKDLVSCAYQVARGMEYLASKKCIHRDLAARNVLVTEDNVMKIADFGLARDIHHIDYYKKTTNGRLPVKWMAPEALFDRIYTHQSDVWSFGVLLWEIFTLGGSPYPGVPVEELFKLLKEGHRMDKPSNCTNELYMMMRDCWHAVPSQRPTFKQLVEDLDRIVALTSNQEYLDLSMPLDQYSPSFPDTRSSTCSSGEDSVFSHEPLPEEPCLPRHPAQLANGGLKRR

The structures appear in SMILES notation.

Sequence of FGFR4 (P22455 22-802): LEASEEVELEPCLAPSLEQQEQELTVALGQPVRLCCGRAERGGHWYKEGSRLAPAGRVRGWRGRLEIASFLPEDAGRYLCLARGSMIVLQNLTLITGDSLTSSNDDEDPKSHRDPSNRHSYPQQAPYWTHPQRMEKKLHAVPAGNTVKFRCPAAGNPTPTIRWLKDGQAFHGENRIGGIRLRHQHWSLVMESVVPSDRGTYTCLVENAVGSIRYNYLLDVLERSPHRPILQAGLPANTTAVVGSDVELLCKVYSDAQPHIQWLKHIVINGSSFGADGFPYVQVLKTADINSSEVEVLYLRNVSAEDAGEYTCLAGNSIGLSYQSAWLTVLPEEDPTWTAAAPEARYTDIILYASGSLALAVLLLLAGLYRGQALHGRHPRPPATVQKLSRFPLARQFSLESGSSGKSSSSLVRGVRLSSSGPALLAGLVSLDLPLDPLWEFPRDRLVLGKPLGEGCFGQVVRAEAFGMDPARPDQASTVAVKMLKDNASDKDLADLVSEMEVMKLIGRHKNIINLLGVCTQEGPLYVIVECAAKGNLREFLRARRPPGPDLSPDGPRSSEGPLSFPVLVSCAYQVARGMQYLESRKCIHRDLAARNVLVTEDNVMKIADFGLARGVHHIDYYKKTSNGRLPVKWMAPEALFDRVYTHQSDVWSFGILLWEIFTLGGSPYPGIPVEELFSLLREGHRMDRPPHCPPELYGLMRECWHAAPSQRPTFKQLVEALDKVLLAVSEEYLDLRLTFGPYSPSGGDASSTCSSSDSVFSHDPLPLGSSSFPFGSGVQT
Sequence of FGFR3 (P22607 23-806): as the sequence (P22607 23-806 V555M) above, with M533V counted along it

For `Cc1ncc(Cl)c([C@@H](C)Oc2ccc3[nH]nc(-c4ccc(N5CC6(CCC(O)C6)C5)nc4)c3c2)c1Cl` (stereo partly drawn) [Example 247, 2-[5-[5-[(1R)-1-(3,5-dichloro-2-methyl-4-pyridyl)ethoxy]-1H-indazol-3-yl]-2-pyridyl]-2-azaspiro[3.4]octan-6-ol], the Kd was 1 to 20 nM in experiment [1]; 20 to 100 nM in experiment [2]; 1 to 20 nM in experiment [3]; 1 to 20 nM in experiment [4]; 20 to 100 nM in experiment [5].
On to `Cc1cc(-c2n[nH]c3ccc(O[C@H](C)c4c(Cl)cncc4Cl)cc23)cnc1N1CC2(C1)CN(S(C)(=O)=O)C2` [Example 248, 5-[(1R)-1-(3,5-dichloro-4-pyridyl)ethoxy]-3-[5-methyl-6-(2-methylsulfonyl-2,6-diazaspiro[3.3]heptan-6-yl)-3-pyridyl]-1H-indazole], for which the Kd in experiment [1] is 1 to 20 nM; in experiment [2], 20 to 100 nM; in experiment [3], 1 to 20 nM; in experiment [4], 1 to 20 nM; in experiment [5], 20 to 100 nM.
Turning to `C[C@@H](Oc1ccc2[nH]nc(-c3ccc(N4CC(C(F)(F)F)C4)nc3)c2c1)c1c(Cl)cncc1Cl` [Example 249, (R)-5-(1-(3,5-dichloropyridin-4-yl)ethoxy)-3-(6-(3-(trifluoromethyl)azetidin-1-yl)pyridin-3-yl)-1H-indazole], the Kd in experiment [1] lay in the range of 1 to 20 nM; in experiment [2], 20 to 100 nM; in experiment [3], 1 to 20 nM; in experiment [4] it was 1 to 20 nM; in experiment [5], 20 to 100 nM.
Take `COc1cc2[nH]nc(-c3cnc(N4CC5(C4)CN(S(C)(=O)=O)C5)c(C)c3)c2cc1O[C@H](C)c1c(Cl)cncc1Cl` [Example 250, 5-[(1R)-1-(3,5-dichloro-4-pyridyl)ethoxy]-6-methoxy-3-[5-methyl-6-(2-methylsulfonyl-2,6-diazaspiro[3.3]heptan-6-yl)-3-pyridyl]-1H-indazole]: the Kd in experiment [1], in experiment [2], in experiment [3], in experiment [4] and in experiment [5] was 1 to 20 nM throughout.
Regarding `Cc1cc2[nH]nc(-c3ccc(N4CC5(C4)CN(S(C)(=O)=O)C5)nc3)c2cc1O[C@H](C)c1c(Cl)cncc1Cl` [Example 251, (R)-5-(1-(3,5-dichloropyridin-4-yl)ethoxy)-6-methyl-3-(6-(6-(methylsulfonyl)-2,6-diazaspiro[3.3]heptan-2-yl)pyridin-3-yl)-1H-indazole], the Kd in experiment [1], in experiment [2], in experiment [3], in experiment [4] and in experiment [5] was 1 to 20 nM throughout.
As to `C[C@@H](Oc1ccc2[nH]nc(-c3ccc(N4CC(C(F)F)C4)nc3)c2c1)c1c(Cl)cncc1Cl` [Example 252, (R)-5-(1-(3,5-dichloropyridin-4-yl)ethoxy)-3-(6-(3-(difluoromethyl)azetidin-1-yl)pyridin-3-yl)-1H-indazole], the Kd in experiment [1] fell in the range of 1 to 20 nM; in experiment [2], 20 to 100 nM; in experiment [3] it was 1 to 20 nM; in experiment [4] it was 1 to 20 nM; in experiment [5], 20 to 100 nM.
Take `C[C@@H](Oc1ccc2[nH]nc(-c3ccc(N4CC(C#N)C4)nc3)c2c1)c1c(Cl)cncc1Cl` [Example 253, (R)-1-(5-(5-(1-(3,5-dichloropyridin-4-yl)ethoxy)-1H-indazol-3-yl)pyridin-2-yl)azetidine-3-carbonitrile]: the dissociation constant (Kd) in experiment [1], in experiment [2], in experiment [3], in experiment [4] and in experiment [5] was 1 to 20 nM each time.
In the case of `Cc1cc2[nH]nc(-c3cnc(N4CC5(C4)CN(S(C)(=O)=O)C5)c(F)c3)c2cc1O[C@@H](C)c1c(Cl)cnnc1Cl` [Example 254, (S)-5-(1-(3,5-dichloropyridazin-4-yl)ethoxy)-3-(5-fluoro-6-(6-(methylsulfonyl)-2,6-diazaspiro[3.3]heptan-2-yl)pyridin-3-yl)-6-methyl-1H-indazole], the Kd in experiment [1] is 1 to 20 nM; in experiment [2], 100 to 300 nM; in experiment [3], over 300 nM; in experiment [4], 20 to 100 nM; in experiment [5], over 300 nM.
`C[C@@H](Oc1cc2c(-c3ccc(N4CC5(C4)CN(S(C)(=O)=O)C5)nc3)n[nH]c2cc1F)c1c(Cl)cncc1Cl` [Example 255, (R)-5-(1-(3,5-dichloropyridin-4-yl)ethoxy)-6-fluoro-3-(6-(6-(methylsulfonyl)-2,6-diazaspiro[3.3]heptan-2-yl)pyridin-3-yl)-1H-indazole]: the Kd in experiment [1], in experiment [2], in experiment [3], in experiment [4] and in experiment [5] was 1 to 20 nM in each case.
Turning to `C[C@@H](Oc1cc2c(-c3cnc(N4CC5(C4)CN(S(C)(=O)=O)C5)c(F)c3)n[nH]c2cc1F)c1c(Cl)cncc1Cl` [Example 256, 5-[(1R)-1-(3,5-dichloro-4-pyridyl)ethoxy]-6-fluoro-3-[5-fluoro-6-(2-methylsulfonyl-2,6-diazaspiro[3.3]heptan-6-yl)-3-pyridyl]-1H-indazole], the Kd in experiment [1], in experiment [2], in experiment [3], in experiment [4] and in experiment [5] was 1 to 20 nM throughout.
In the case of `C[C@@H](Oc1ccc2[nH]nc(-c3ccc(N4CC(C)(N)C4)nc3)c2c1)c1c(Cl)cncc1Cl` [Example 257, (R)-1-(5-(5-(1-(3,5-dichloropyridin-4-yl)ethoxy)-1H-indazol-3-yl)pyridin-2-yl)-3-methylazetidin-3-amine], the Kd in experiment [1], in experiment [2], in experiment [3], in experiment [4] and in experiment [5] was 1 to 20 nM throughout.
`C[C@@H](Oc1cc2c(-c3cnc(N4CC5(C4)CN(S(C)(=O)=O)C5)c(F)c3)n[nH]c2cc1F)c1c(Cl)cnnc1Cl` [Example 258, (R)-5-(1-(3,5-dichloropyridazin-4-yl)ethoxy)-6-fluoro-3-(5-fluoro-6-(6-(methylsulfonyl)-2,6-diazaspiro[3.3]heptan-2-yl)pyridin-3-yl)-1H-indazole]: the Kd in experiment [1], in experiment [2], in experiment [3], in experiment [4] and in experiment [5] was 1 to 20 nM in each case.
Take `Cc1cc2[nH]nc(-c3cnc(N4CC5(C4)CN(S(C)(=O)=O)C5)c(F)c3)c2cc1O[C@H](C)c1c(Cl)cnnc1Cl` [Example 259, (R)-5-(1-(3,5-dichloropyridazin-4-yl)ethoxy)-3-(5-fluoro-6-(6-(methylsulfonyl)-2,6-diazaspiro[3.3]heptan-2-yl)pyridin-3-yl)-6-methyl-1H-indazole]: the Kd in experiment [1], in experiment [2], in experiment [3], in experiment [4] and in experiment [5] was 1 to 20 nM each time.
In the case of `C[C@@H](Oc1cc2c(-c3ccc(N4CC5(C4)CN(S(C)(=O)=O)C5)nc3)n[nH]c2cc1Cl)c1c(Cl)cncc1Cl` [Example 260, (R)-6-chloro-5-(1-(3,5-dichloropyridin-4-yl)ethoxy)-3-(6-(6-(methylsulfonyl)-2,6-diazaspiro[3.3]heptan-2-yl)pyridin-3-yl)-1H-indazole], the Kd in experiment [1], in experiment [2], in experiment [3], in experiment [4] and in experiment [5] was 1 to 20 nM in each case.
For `COc1cc2[nH]nc(-c3ccc(N4CC5(C4)CN(S(C)(=O)=O)C5)nc3)c2cc1O[C@H](C)c1c(Cl)cnnc1Cl` [Example 261, (R)-5-(1-(3,5-dichloropyridazin-4-yl)ethoxy)-6-methoxy-3-(6-(6-(methylsulfonyl)-2,6-diazaspiro[3.3]heptan-2-yl)pyridin-3-yl)-1H-indazole], the Kd in experiment [1], in experiment [2], in experiment [3], in experiment [4] and in experiment [5] was 1 to 20 nM each time.
For `C[C@@H](Oc1cc2c(-c3ccc(N4CC5(C4)CN(S(C)(=O)=O)C5)nc3)n[nH]c2cc1F)c1c(Cl)cnnc1Cl` [Example 262, (R)-5-(1-(3,5-dichloropyridazin-4-yl)ethoxy)-6-fluoro-3-(6-(6-(methylsulfonyl)-2,6-diazaspiro[3.3]heptan-2-yl)pyridin-3-yl)-1H-indazole], the Kd in experiment [1], in experiment [2], in experiment [3], in experiment [4] and in experiment [5] was 1 to 20 nM throughout.
For `C[C@@H](Oc1cc2c(-c3ccc(N4CC5(C4)CN(S(C)(=O)=O)C5)nc3)n[nH]c2cc1Cl)c1c(Cl)cnnc1Cl` [Example 263, (R)-6-chloro-5-(1-(3,5-dichloropyridazin-4-yl)ethoxy)-3-(6-(6-(methylsulfonyl)-2,6-diazaspiro[3.3]heptan-2-yl)pyridin-3-yl)-1H-indazole], the Kd in experiment [1], in experiment [2], in experiment [3], in experiment [4] and in experiment [5] was 1 to 20 nM throughout.
Turning to `C[C@@H](Oc1cc2c(-c3cnc(N4CC5(C4)CN(S(C)(=O)=O)C5)c(F)c3)n[nH]c2cc1Cl)c1c(Cl)cnnc1Cl` [Example 264, (R)-6-chloro-5-(1-(3,5-dichloropyridazin-4-yl)ethoxy)-3-(5-fluoro-6-(6-(methylsulfonyl)-2,6-diazaspiro[3.3]heptan-2-yl)pyridin-3-yl)-1H-indazole], the Kd in experiment [1], in experiment [2], in experiment [3], in experiment [4] and in experiment [5] was 1 to 20 nM each time.
